According to article PMC8671953 (Nanotheranostics, 2022):

Columns and labels:
EAE mice = details: cited from earlier work
GCPII = system: GCPII; design: method as in PMID 23169655, PMID 26826008; details: ref [8], [9]; cited from earlier work
[1] = cited from earlier work
[2] = molecular target: human recombinant GCPII enzyme (Homo sapiens, UniProt Q04609); experiment: GCPII activity assay (IC50), NAA-[3H]-G hydrolysis; type: biochemical; details: human recombinant GCPII 40 pM, NAA-[3H]-G 30 nM, 37 °C, 20 min
Sequence of human recombinant GCPII enzyme (Q04609 whole entry): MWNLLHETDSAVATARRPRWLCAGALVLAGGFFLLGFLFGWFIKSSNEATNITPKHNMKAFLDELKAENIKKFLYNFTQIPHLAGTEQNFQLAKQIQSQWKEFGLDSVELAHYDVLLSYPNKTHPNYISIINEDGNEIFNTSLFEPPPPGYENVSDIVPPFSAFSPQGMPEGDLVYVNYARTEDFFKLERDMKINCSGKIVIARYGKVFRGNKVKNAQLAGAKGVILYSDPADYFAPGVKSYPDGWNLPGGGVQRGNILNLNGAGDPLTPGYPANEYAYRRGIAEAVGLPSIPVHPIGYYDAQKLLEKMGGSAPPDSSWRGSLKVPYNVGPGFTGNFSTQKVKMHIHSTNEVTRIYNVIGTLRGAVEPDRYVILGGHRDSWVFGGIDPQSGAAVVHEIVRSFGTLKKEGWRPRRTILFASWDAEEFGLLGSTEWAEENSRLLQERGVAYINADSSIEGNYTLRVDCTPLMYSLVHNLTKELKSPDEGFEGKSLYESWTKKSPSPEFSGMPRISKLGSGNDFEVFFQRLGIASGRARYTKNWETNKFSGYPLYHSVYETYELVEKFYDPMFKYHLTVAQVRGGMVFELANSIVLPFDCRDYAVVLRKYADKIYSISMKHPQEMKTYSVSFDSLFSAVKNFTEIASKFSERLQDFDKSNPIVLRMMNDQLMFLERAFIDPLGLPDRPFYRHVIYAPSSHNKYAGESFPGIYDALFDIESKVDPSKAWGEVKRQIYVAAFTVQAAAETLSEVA

| Compound | effect on EAE disease score (EAE mice; free 2-PMPA treatment, ref [8], [9]) | minimal dose required for positive behavioral effects and alterations in brain NAAG levels (EAE mice; previous dose response studies, ref [9]) | IC50 (GCPII) | clearance from circulation ([1]; free drug, ref [9]) | brain penetration (AUCbrain/AUCplasma) ([1]; ref [37]) | oral bioavailability (F) ([1]; ref [37]) | IC50 [2] |
| --- | --- | --- | --- | --- | --- | --- | --- |
| O=C(O)CCC(CP(=O)(O)O)C(=O)O (stereo not shown) [2-PMPA, 2-(phosphonomethyl)-pentanedioic acid] | no effect on EAE disease score | […] | […] | cleared from circulation within six hours | < 0.02 | < 2% | – |
| [N-]=[N+]=NCCOCCOCCOCCOCCOCCOCCOCCOCCOCCOCCOC(=O)CCC(CP(=O)(O)O)C(=O)O (stereo not shown) [2-PMPA-PEG-azide] | – | – | – | – | – | – | 1.6 nM |
